In US20230146455A1, “TREATMENT OF INFLAMMATORY DISEASES WITH PEPTIDES AND PHARMACEUTICAL COMPOSITIONS” (Yuyu Pharma, Inc., priority 2020, published 2023):
“And” between values parts separate entries of the source, which are not always exact repeats. Equal entries are not always repeated. Where a SMILES comes first, the peptide text is derived from it. [ ]: non-standard residue; d: D form. Hyp = O=C(O)[C@@H]1C[C@@H](O)CN1

How the values were obtained:
IL-10 = assay: Example 8 main study Luminex, LPS hPBMCs: IL-10; assay type: cell-based, human; details: for IL-10 Concentration: individual replicates; for IL-10 Concentration (pg/ml), Mean: mean of replicates; for LPS-induced IL-10 (in words): at as low as 5 μM, LPS 5 ug/mL 24 hrs
Procedure: (§1) Human PBMCs were pretreated with YY-101, YDE-011, YDE-043 or reference compound; Xiidra® at various concentration (ranging from […] to 500 nM) for 2 h before stimulation. An equal volume of 0.5% DMSO was used as a vehicle control. Then, the cells were treated with LPS at 5 ug/ml, which was selected based on the pilot study. The supernatants from treated cells were harvested at 24 h and placed in a 96 well for Luminex cytokine & chemokine profiling using a Luminex 200 multiplex assay (Luminex; R&D system, USA).
(§2) The main study arm with triplicate wells per group in a 24-well plate: • 1. Blank • 2. PBMC: 0.5% DMSO • 3. PBMC+LPS (5 ug/ml) • 4. PBMC+YY-101 500 nM • 5. PBMC+YY-101 50 nM • 6. PBMC+YY-101 5 nM • 7. PBMC+YY-101 0.5 nM • 8. PBMC+LPS (5 ug/ml)+Xiidra® 500 nM • 9. PBMC+LPS (5 ug/ml)+Xiidra® 50 nM • 10. PBMC+LPS (5 ug/ml)+Xiidra® 5 nM • 11. PBMC+LPS (5 ug/ml)+Xiidra® 0.5 nM • 12. PBMC+LPS (5 ug/ml)+Xiidra® 0.05 nM • 13. PBMC+LPS (5 ug/ml)+Xiidra® 0.005 nM • 14. PBMC+LPS (5 ug/ml)+YY-101 500 nM • 15. PBMC+LPS (5 ug/ml)+YY-101 50 nM • 16. PBMC+LPS (5 ug/ml)+YY-101 5 nM • 17. PBMC+LPS (5 ug/ml)+YY-101 0.5 nM • 18. PBMC+LPS (5 ug/ml)+YY-101 0.05 nM • 19. PBMC+LPS (5 ug/ml)+YY-101 0.005 nM • 20. PBMC+LPS (5 ug/ml)+YDE-011 500 nM • 21. PBMC+LPS (5 ug/ml)+YDE-011 50 nM • 22. PBMC+LPS (5 ug/ml)+YDE-011 5 nM • 23. PBMC+LPS (5 ug/ml)+YDE-011 0.5 nM • 24. PBMC+LPS (5 ug/ml)+YDE-011 0.05 nM • 25. PBMC+LPS (5 ug/ml)+YDE-011 0.005 nM • 26. PBMC+LPS (5 ug/ml)+YDE-043 500 nM • 27. PBMC+LPS (5 ug/ml)+YDE-043 50 nM • 28. PBMC+LPS (5 ug/ml)+YDE-043 5 nM • 29. PBMC+LPS (5 ug/ml)+YDE-043 0.5 nM • 30. PBMC+LPS (5 ug/ml)+YDE-043 0.05 nM • 31. PBMC+LPS (5 ug/ml)+YDE-043 0.005 nM
(§3) Multiplex assay was used to measure 30 cytokines and chemokines. The 1:200 diluted cell supernatant and serial dilution of the standard were dispensed into a 96 well plate at 50 ul/well. Then, the pre-mixed cocktail of antibody-coated magnetic beads was dispensed at 50 ul/well and incubated at room temperature for 2 h in a horizontal orbital microplate shaker at 800±500 rpm. The beads were washed using a magnetic device to prevent loss. The biotin-antibody was dispensed in 50 ul of each well and incubated at room temperature for 1 h in a shaker at 800±500 rpm. After washing, streptavidin-PE was added at 50 ul/well and incubated at room temperature for 30 min in a shaker under the same conditions. Finally, after washing, wash buffer (100 ul/well) was added to the plate and incubated in a shaker for 2 min. The Luminex™ 200 setting were set according to the manufacturer's protocol. The data was calculated with a standard five-parameter logistic nonlinear regression analysis of the data (xPonent software 4.2, USA). Results were presented as concentration (ng/ml or pg/ml).

CCL3/MIP-1 alpha = assay: Example 8 main study Luminex, LPS hPBMCs: CCL3/MIP-1 alpha; assay type: cell-based, human; details: for LPS-induced CCL-3 (in words): at as low as 5 μM, LPS 5 ug/mL 24 hrs
Procedure: as §1, §2, §3

[1] = PBMC + LPS(5 ug/ml) + test article 0.005 nM
[2] = PBMC + LPS(5 ug/ml) + test article 0.05 nM
[3] = PBMC + LPS(5 ug/ml) + test article 0.5 nM
[4] = PBMC + LPS(5 ug/ml) + test article 5 nM
[5] = PBMC + LPS(5 ug/ml) + test article 50 nM
[6] = PBMC + LPS(5 ug/ml) + test article 500 nM
[7] = PBMC + LPS(5 ug/ml) + test article 0.005 nM, Mean
[8] = PBMC + LPS(5 ug/ml) + test article 0.005 nM, single replicates
[9] = PBMC + LPS(5 ug/ml) + test article 0.05 nM, Mean
[10] = PBMC + LPS(5 ug/ml) + test article 0.05 nM, single replicates
[11] = PBMC + LPS(5 ug/ml) + test article 0.5 nM, Mean
[12] = PBMC + LPS(5 ug/ml) + test article 0.5 nM, single replicates
[13] = PBMC + LPS(5 ug/ml) + test article 5 nM, Mean
[14] = PBMC + LPS(5 ug/ml) + test article 5 nM, single replicates
[15] = PBMC + LPS(5 ug/ml) + test article 50 nM, Mean
[16] = PBMC + LPS(5 ug/ml) + test article 50 nM, single replicates
[17] = PBMC + LPS(5 ug/ml) + test article 500 nM, Mean
[18] = PBMC + LPS(5 ug/ml) + test article 500 nM, single replicates

SMILES | IL-10 Concentration (IL-10; [1]) | IL-10 Concentration (pg/ml), Mean (IL-10; [1]) [pg/mL] | IL-10 Concentration (IL-10; [2]) | IL-10 Concentration (pg/ml), Mean (IL-10; [2]) [pg/mL] | IL-10 Concentration (IL-10; [3]) | IL-10 Concentration (pg/ml), Mean (IL-10; [3]) [pg/mL] | IL-10 Concentration (IL-10; [4]) | IL-10 Concentration (pg/ml), Mean (IL-10; [4]) [pg/mL] | IL-10 Concentration (IL-10; [5]) | IL-10 Concentration (pg/ml), Mean (IL-10; [5]) [pg/mL] | IL-10 Concentration (IL-10; [6]) | IL-10 Concentration (pg/ml), Mean (IL-10; [6]) [pg/mL] | LPS-induced IL-10 (in words) (IL-10) | CCL3/MIP-1 alpha Concentration (CCL3/MIP-1 alpha; [7]) [pg/mL] | CCL3/MIP-1 alpha MFI (CCL3/MIP-1 alpha; [7]) | CCL3/MIP-1 alpha Concentration (CCL3/MIP-1 alpha; [8]) | CCL3/MIP-1 alpha MFI (CCL3/MIP-1 alpha; [8]) | CCL3/MIP-1 alpha Concentration (CCL3/MIP-1 alpha; [9]) [pg/mL] | CCL3/MIP-1 alpha MFI (CCL3/MIP-1 alpha; [9]) | CCL3/MIP-1 alpha Concentration (CCL3/MIP-1 alpha; [10]) | further results
CC(C)C[C@H](NC(=O)CNC(=O)[C@H](CC(C)C)NC(=O)[C@H](CCC(N)=O)NC(=O)CNC(=O)[C@@H]1C[C@@H](O)CN1)C(=O)N[C@@H](C)C(=O)NCC(=O)N1CCC[C@H]1C(=O)N[C@@H](CCCCN)C(=O)O [YDE-011] (H-[Hyp]GQLGLAGPK-OH) | 624.7 pg/mL and 409.5 pg/mL and 531.7 pg/mL | 521.9 | 729.2 pg/mL and 611.5 pg/mL and 651.0 pg/mL | 663.9 | 409.5 pg/ml (2×) and 297.6 pg/ml | 372.2 | 181.1 pg/mL and 210.8 pg/mL and 381.9 pg/mL | 257.9 | 518.2 pg/mL and 845.0 pg/mL and <2.59 pg/mL | 681.6 | 883.3 pg/mL and <2.59 pg/mL and 225.5 pg/mL | 554.4 | significantly reduced | 30631.2 | 40.8 | 31818.4 pg/mL and 28790.7 pg/mL and 31284.6 pg/mL | 43.0 and 37.5 and 42.0 | 34293.4 | 47.8 | 34390.9 pg/mL and 32865.8 pg/mL and 35623.4 pg/mL | CCL3/MIP-1 alpha MFI (CCL3/MIP-1 alpha; [10]): 48.0 and 45.0 and 50.5; CCL3/MIP-1 alpha Concentration (CCL3/MIP-1 alpha; [11]): 30465.1 pg/mL; CCL3/MIP-1 alpha MFI (CCL3/MIP-1 alpha; [11]): 40.5; CCL3/MIP-1 alpha Concentration (CCL3/MIP-1 alpha; [12]): 31284.6 pg/mL and 29639.8 pg/mL and 30470.7 pg/mL; CCL3/MIP-1 alpha MFI (CCL3/MIP-1 alpha; [12]): 42.0 and 39.0 and 40.5; CCL3/MIP-1 alpha Concentration (CCL3/MIP-1 alpha; [13]): 27362.3 pg/mL; CCL3/MIP-1 alpha MFI (CCL3/MIP-1 alpha; [13]): 35.2; CCL3/MIP-1 alpha Concentration (CCL3/MIP-1 alpha; [14]): 25497.0 pg/mL and 26119.3 pg/mL and 30470.7 pg/mL; CCL3/MIP-1 alpha MFI (CCL3/MIP-1 alpha; [14]): 32.0 and 33.0 and 40.5; CCL3/MIP-1 alpha Concentration (CCL3/MIP-1 alpha; [15]): 28334.6 pg/mL; CCL3/MIP-1 alpha MFI (CCL3/MIP-1 alpha; [15]): 37.3; CCL3/MIP-1 alpha Concentration (CCL3/MIP-1 alpha; [16]): 32865.8 pg/mL and 21122.8 pg/mL and 31015.1 pg/mL; CCL3/MIP-1 alpha MFI (CCL3/MIP-1 alpha; [16]): 45.0 and 25.5 and 41.5; CCL3/MIP-1 alpha Concentration (CCL3/MIP-1 alpha; [17]): 27851.5 pg/mL; CCL3/MIP-1 alpha MFI (CCL3/MIP-1 alpha; [17]): 36.8; CCL3/MIP-1 alpha Concentration (CCL3/MIP-1 alpha; [18]): 34390.9 pg/mL and 19244.9 pg/mL and 29918.7 pg/mL; CCL3/MIP-1 alpha MFI (CCL3/MIP-1 alpha; [18]): 48.0 and 23.0 and 39.5; LPS-induced CCL-3 (in words) (CCL3/MIP-1 alpha): significantly reduced
CC(C)C[C@H](NC(=O)[C@H](CCC(N)=O)NC(=O)CNC(=O)[C@@H]1C[C@@H](O)CN1)C(=O)NCC(=O)O [YDE-043] (H-[Hyp]GQLG-OH; N-terminus and C-terminus assumed) | 651.0 pg/mL and 806.6 pg/mL and 1134.2 pg/mL | 863.9 | 436.9 pg/mL and 518.2 pg/mL and 381.9 pg/mL | 445.7 | 436.9 pg/mL and 491.3 pg/mL and 624.7 pg/mL | 517.6 | 545.0 pg/mL and 637.8 pg/mL and 558.4 pg/mL | 580.4 | 571.7 pg/mL and 598.2 pg/mL and 518.2 pg/mL | 562.7 | 464.2 pg/mL and 545.0 pg/mL and 436.9 pg/mL | 482.0 | significantly reduced | 38526.9 | 57.3 | 32345.4 pg/mL and 37296.1 pg/mL and 45939.1 pg/mL | 44.0 and 54.0 and 74.0 | 29535.1 | 38.8 | 28213.9 pg/ml and 30195.7 pg/ml (2×) | CCL3/MIP-1 alpha MFI (CCL3/MIP-1 alpha; [10]): 36.5 and 40.0 (2×); CCL3/MIP-1 alpha Concentration (CCL3/MIP-1 alpha; [11]): 30000.1 pg/mL; CCL3/MIP-1 alpha MFI (CCL3/MIP-1 alpha; [11]): 39.7; CCL3/MIP-1 alpha Concentration (CCL3/MIP-1 alpha; [12]): 29639.8 pg/mL and 31284.6 pg/mL and 29075.9 pg/mL; CCL3/MIP-1 alpha MFI (CCL3/MIP-1 alpha; [12]): 39.0 and 42.0 and 38.0; CCL3/MIP-1 alpha Concentration (CCL3/MIP-1 alpha; [13]): 31809.4 pg/mL; CCL3/MIP-1 alpha MFI (CCL3/MIP-1 alpha; [13]): 43.0; CCL3/MIP-1 alpha Concentration (CCL3/MIP-1 alpha; [14]): 31818.4 pg/mL and 32865.8 pg/mL and 30743.9 pg/mL; CCL3/MIP-1 alpha MFI (CCL3/MIP-1 alpha; [14]): 43.0 and 45.0 and 41.0; CCL3/MIP-1 alpha Concentration (CCL3/MIP-1 alpha; [15]): 31754.6 pg/mL; CCL3/MIP-1 alpha MFI (CCL3/MIP-1 alpha; [15]): 43.0; CCL3/MIP-1 alpha Concentration (CCL3/MIP-1 alpha; [16]): 33380.1 pg/ml (2×) and 28503.4 pg/ml; CCL3/MIP-1 alpha MFI (CCL3/MIP-1 alpha; [16]): 46.0 (2×) and 37.0; CCL3/MIP-1 alpha Concentration (CCL3/MIP-1 alpha; [17]): 28096.2 pg/mL; CCL3/MIP-1 alpha MFI (CCL3/MIP-1 alpha; [17]): 36.3; CCL3/MIP-1 alpha Concentration (CCL3/MIP-1 alpha; [18]): 28503.4 pg/mL and 26426.3 pg/mL and 29358.9 pg/mL; CCL3/MIP-1 alpha MFI (CCL3/MIP-1 alpha; [18]): 37.0 and 33.5 and 38.5; LPS-induced CCL-3 (in words) (CCL3/MIP-1 alpha): significantly reduced
